Measurements as given in patent publication US8106055B2, “Substituted amide compounds” (Gruenenthal GmbH, priority 2007, dated 2012).
Like-named read-outs stand apart in the source and are kept apart here.

Columns and labels:
human μ opiate receptor = biological target: T1, human μ opiate receptor (Homo sapiens, UniProt P35372); assay: Affinity for the human μ opiate receptor ([3H]-naloxone displacement, CHO-K1 receptor membrane preparation, SPA); type: binding; details: test concentration of 1 μM
T1 construct: purchased PerkinElmer Life Sciences, Zaventem, Belgium RB-HOM; host or cells: CHO-K1 cells (membrane preparation)
T1 sequence (P35372 whole entry): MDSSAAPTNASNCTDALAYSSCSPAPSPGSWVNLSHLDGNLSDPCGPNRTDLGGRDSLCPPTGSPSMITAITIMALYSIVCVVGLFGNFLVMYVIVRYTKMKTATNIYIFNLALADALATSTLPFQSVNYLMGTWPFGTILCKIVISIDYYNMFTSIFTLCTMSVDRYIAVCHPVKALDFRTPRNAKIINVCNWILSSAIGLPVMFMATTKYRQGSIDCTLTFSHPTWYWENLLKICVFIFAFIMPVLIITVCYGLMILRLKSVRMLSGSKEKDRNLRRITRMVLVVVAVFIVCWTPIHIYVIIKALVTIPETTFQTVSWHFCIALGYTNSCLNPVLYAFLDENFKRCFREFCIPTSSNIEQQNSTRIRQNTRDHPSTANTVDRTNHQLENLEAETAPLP
Protocol: Binding data of the compounds on the μ opioid receptor and data on the inhibition of reuptake of serotonin (5-HT) are given in Table 1. The data for the μ receptor were measured at a test concentration of 1 μM, and those for the serotonin reuptake at 10 μM. The values are stated in % inhibition.
Investigation of the Activity of the Compounds of the Invention Method for Determining the Affinity for the Human μ Opiate Receptor
The receptor affinity for the human p opiate receptor is determined in a homogeneous set-up in microtitre plates. For this, dilution series of the substances to be tested are incubated with a receptor membrane preparation (15-40 μg of protein/250 μl of incubation batch) of CHO-K1 cells which express the human p opiate receptor (RB-HOM receptor membrane preparation from PerkinElmer Life Sciences, Zaventem, Belgium) in the presence of 1 nmol/l of the radioactive ligand [^3H]-naloxone (NET719, PerkinElmer Life Sciences, Zaventem, Belgium) and 1 mg of WGA-SPA-Beads (wheat germ agglutinin SPA beads from Amersham/Pharmacia, Freiburg, Germany) in a total volume of 250 μl for 90 minutes at room temperature. 50 mmol/l of Tris-HCl supplemented with 0.06% of bovine serum albumin is used as the incubation buffer. 100 μmol/l of naloxone are additionally added for determination of the non-specific binding. After the end of the ninety-minute incubation time, the microtitre plates are centrifuged for 20 minutes at 1,000 g and the radioactivity is measured in a β-counter (Microbeta-Trilux, PerkinElmer Wallac, Freiburg, Germany). The percentage displacement of the radioactive ligand from its binding to the human p opiate receptor is determined at a concentration of the test substances of 1 μmol/l and stated as the percentage inhibition of the specific binding. Starting from the percentage displacement by various concentrations of the test substances, IC50 inhibitory concentrations which cause a 50 percent displacement of the radioactive ligand are calculated. By conversion by means of the Cheng-Prusoff relationship, Ki values for the test substances are obtained.

[1] = biological target: T2, human bradykinin 1 receptor (B1R) (Homo sapiens, UniProt P46663); assay: Functional investigation on the human bradykinin 1 receptor (B1R), Ca2+ FLIPR assay in CHO K1 hB1R cells; type: cell-based; details: test substance 10 μM; for inhibition at 10 µM: CHO-K1, B1R antagonism human, read-out: B1R Ant. h [10 μM] % Inhibition; for B1R Ant. h [10 μM] % Inhibition: B1R antagonism human
T2 construct: expressed in transfected cells; host or cells: CHO K1 cells
T2 sequence (P46663 1-353): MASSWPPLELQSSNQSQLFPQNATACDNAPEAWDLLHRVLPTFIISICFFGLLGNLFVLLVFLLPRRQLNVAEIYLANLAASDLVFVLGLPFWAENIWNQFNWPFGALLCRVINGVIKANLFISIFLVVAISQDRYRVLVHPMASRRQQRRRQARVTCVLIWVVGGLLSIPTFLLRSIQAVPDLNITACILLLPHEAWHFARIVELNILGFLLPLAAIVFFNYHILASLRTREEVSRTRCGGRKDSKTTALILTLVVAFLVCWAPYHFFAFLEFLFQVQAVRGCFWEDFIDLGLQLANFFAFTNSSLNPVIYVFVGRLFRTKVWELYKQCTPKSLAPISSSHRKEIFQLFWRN
Text: (§1) Functional Investigation on the Human Bradykinin 1 Receptor (B1R)
(§2) The agonistic or antagonistic action of substances can be determined on the bradykinin 1 receptor (B1R) of the human species and rats with the following assay. In accordance with this assay, the Ca^2+ inflow through the channel is quantified with the aid of a Ca^2=-sensitive dyestuff (type Fluo-4, Molecular Probes Europe BV, Leiden, Holland) in a fluorescent imaging plate reader (FLIPR, Molecular Devices, Sunnyvale, USA).
(§3) Chinese hamster ovary cells (CHO K1 cells) transfected stably with the human B1R gene (hB1R cells) or the B1R gene of the rat (rB1R cells) are used. For functional studies, these cells are plated out on black 96-well plates with a clear base (BD Biosciences, Heidelberg, Germany or Greiner, Frickenhausen, Germany) in a density of 20,000-35,000 cells/well. The cells are left overnight at 37° C. and 5% CO2 in culture medium (hB1R cells: Nutrient Mixture Ham's F12, Gibco Invitrogen GmbH, Karlsruhe, Germany or DMEM, Sigma-Aldrich, Taufkirchen, Germany; rB1R cells: D-MEM/F12, Gibco Invitrogen GmbH, Karlsruhe, Germany) with 10 vol. % of FBS (foetal bovine serum, Gibco Invitrogen GmbH, Karlsruhe, Germany or PAN Biotech GmbH, Aidenbach, Germany).
(§4) On the following day, the cells are loaded for 60 min at 37° C. with 2.13 μM Fluo-4 (Molecular Probes Europe BV, Leiden, The Netherlands) in HBSS buffer (Hank's buffered saline solution, Gibco Invitrogen GmbH, Karlsruhe, Germany) with 2.5 mM probenecid (Sigma-Aldrich, Taufkirchen, Germany) and 10 mM HEPES (Sigma-Aldrich, Taufkirchen, Germany). The plates are then washed 2× with HBSS buffer, and HBSS buffer which additionally contains 0.1% of BSA (bovine serum albumin; Sigma-Aldrich, Taufkirchen, Germany), 5.6 mM glucose and 0.05% of gelatine (Merck KGaA, Darmstadt, Germany) is added. After a further incubation of 20 minutes at room temperature, the plates are inserted into the FLIPR for the Ca^2+ measurement.
(§5) Alternatively, the plates are washed with buffer A (15 mM HEPES, 80 mM NaCl, 5 mM KCl, 1.2 mM CaCl2, 0.7 mM MgSO4, 2 g/l glucose, 2.5 mM probenecid), buffer A is added and the plates are loaded with 2.5 μM Fluo-4 and 0.025% of Pluronic F127 (Sigma-Aldrich, Taufkirchen, Germany). Thereafter, the cells are washed 2× with buffer A and incubated for 30 minutes with buffer A, which additionally contains 0.05% of BSA and 0.05% of gelatine, at room temperature and thereafter inserted into the FLIPR for the Ca^2+ measurement.
(§6) The Ca^2+-dependent fluorescence is measured before and after addition of substances (λex=488 nm, λem=540 nm). Quantification is by measurement of the highest fluorescence intensity (FC, fluorescence counts) over time.
(§7) The FLIPR protocol consists of 2 additions of substance. Test substances (10 μM) are first pipetted on to the cells and the Ca^2+ inflow is compared with the control (hB1R: Lys-Des-Arg^9-bradykinin >=50 nM; rB1R: Des-Arg^9-bradykinin 10 μM). This gives the information in % activation based on the Ca^2+ signal after addition of Lys-Des-Arg^9-bradykinin (>=50 nM) or Des-Arg^9-bradykinin (10 μM).
(§8) After incubation for 10-20 minutes, Lys-Des-Arg^9-bradykinin (hB1R) or Des-Arg^9-bradykinin (rB1R) is applied in the concentration of the EC80 and the inflow of Ca^2+ is likewise determined.
(§9) Antagonists lead to a suppression of the Ca^2+ inflow. % inhibition compared with the maximum achievable inhibition is calculated.
(§10) To determine the IC50 value, the substances are added in various concentrations. Duplicate or triplicate determinations (n=2 or n=3) are carried out, and these are repeated in at least one further independent experiment (N>=2).
(§11) Preferably, the compounds have a B1R antagonistic action on the human receptor and/or on the rat receptor. The following data are given by way of example in the following table: (In this, “B1R Ant. h” represents “B1R antagonism human” and “B1R Ant. r” represents “B1R antagonism rat”)

[2] = biological target: T3, bradykinin 1 receptor (B1R) of the rat (Rattus norvegicus, UniProt P97583); assay: Functional investigation on the rat bradykinin 1 receptor (B1R), Ca2+ FLIPR assay in CHO K1 rB1R cells; type: cell-based; details: CHO-K1, B1R antagonism rat; test substance 10 μM; Ca2+ FLIPR, CHO K1 rB1R cells; read-out: B1R Ant. r [10 μM] % Inhibition
T3 construct: expressed in transfected cells; host or cells: CHO K1 cells
T3 sequence (P97583 1-337): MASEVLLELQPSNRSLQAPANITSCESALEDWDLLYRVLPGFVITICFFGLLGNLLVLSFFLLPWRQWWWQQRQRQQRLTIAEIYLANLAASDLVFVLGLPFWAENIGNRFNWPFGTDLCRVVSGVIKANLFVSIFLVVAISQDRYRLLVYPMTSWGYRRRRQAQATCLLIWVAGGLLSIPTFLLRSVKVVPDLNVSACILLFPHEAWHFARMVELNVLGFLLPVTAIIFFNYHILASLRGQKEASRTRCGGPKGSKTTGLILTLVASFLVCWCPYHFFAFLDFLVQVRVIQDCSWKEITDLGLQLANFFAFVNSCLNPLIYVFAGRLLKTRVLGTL
Text: as §1, §2, §3, §4, §5, §6, §7, §8, §9, §10, §11

Structure (SMILES) | μ (binding on the μ opioid receptor, % inhibition) (human μ opiate receptor) [%] | B1R Ant. h [10 μM] % Inhibition ([1]; Ca2+ FLIPR, CHO K1 hB1R cells) [%] | other results
Cc1ccc(S(=O)(=O)N2CCC(OCC(=O)NC3CCC(C(c4ccccc4)N(C)C)CC3)C2)cc1 (centres unmarked) [Example 123, N-(4-((dimethylamino)(phenyl)methyl)cyclohexyl)-2-(1-tosylpyrrolidin-3-yloxy)acetamide] | – | – | inhibition at 1 µM (human μ opiate receptor; read-out: μ (binding on the μ opioid receptor, % inhibition)): 27%; inhibition at 10 µM ([1]; Ca2+ FLIPR, CHO K1 hB1R cells): -6%
CC(Oc1ccccc1)C(=O)NC1CCC(C(c2ccc(F)cc2)N(C)C)CC1 (centres unmarked) [Example 516] | 40 | – | –
CN(C)C(c1ccccc1)C1CCC(NC(=O)COCCN(C)S(=O)(=O)c2ccc(F)cc2)CC1 (centres unmarked) [Example 585] | 41 | −10 | –
CN(C)C(c1ccccc1)C1CCC(NC(=O)COCCN(C)S(=O)(=O)c2ccccc2)CC1 (centres unmarked) [Example 588] | 29 | 6 | –
CN(C)C(c1ccccc1)C1CCC(NC(=O)COCCN(C)S(=O)(=O)c2ccc(Cl)cc2)CC1 (centres unmarked) [Example 589] | 25 | 28 | –
COc1ccc(S(=O)(=O)N(C)CCOCC(=O)NC2CCC(C(c3ccccc3)N(C)C)CC2)cc1 (centres unmarked) [Example 590] | 75 | −1 | –
CN(C)C(c1ccccc1)C1CCC(NC(=O)COC2CCN(S(=O)(=O)c3ccc(F)cc3)C2)CC1 (centres unmarked) [Example 591] | 93 | 0 | –
COc1ccc(S(=O)(=O)N(C)CCOCC(=O)NC2CCC(C(c3ccccc3)N(C)C)CC2)cc1OC (centres unmarked) [Example 592] | 83 | 1 | –
CN(C)C(c1ccccc1)C1CCC(NC(=O)COCCN(C)S(=O)(=O)c2cccc(C(F)(F)F)c2)CC1 (centres unmarked) [Example 593] | 91 | 56 | –
CN(C)C(c1ccccc1)C1CCC(NC(=O)COCCN(C)S(=O)(=O)c2ccc(OC(F)(F)F)cc2)CC1 (centres unmarked) [Example 594] | 94 | 20 | –
CN(C)C(c1ccccc1)C1CCC(NC(=O)COC2CCN(S(=O)(=O)c3ccccc3)C2)CC1 (centres unmarked) [Example 595] | 51 | 15 | –
CN(C)C(c1ccccc1)C1CCC(NC(=O)COC2CCN(S(=O)(=O)c3ccc(Cl)cc3Cl)C2)CC1 (centres unmarked) [Example 596] | 84 | 32 | –
CN(Cc1ccccc1)C(c1ccccc1)C1CCC(NC(=O)COCCN(C2CC2)S(=O)(=O)c2c(Cl)cc(Cl)cc2Cl)CC1 (centres unmarked) [Example 604, N-{4-[(benzylmethylamino)-phenylmethyl]-cyclohexyl}-2-{2-[cyclopropyl-(2,4,6-trichlorobenzenesulfonyl)-amino]-ethoxy}-acetamide] | – | – | inhibition at 10 µM ([1]; Ca2+ FLIPR, CHO K1 hB1R cells): -18%; inhibition at 10 µM [2]: 33%
COc1ccc(-c2noc(C(=O)NCC(=O)NC3CCC(C(CCc4ccccc4)N(C)C)CC3)n2)cc1OC (centres unmarked) [Example 794, 3-(3,4-dimethoxy-phenyl)-[1,2,4]oxadiazole-5-carboxylic acid {[4-(1-dimethylamino-3-phenyl-propyl)-cyclohexylcarbamoyl]-methyl}-amide] | – | – | inhibition at 10 µM ([1]; Ca2+ FLIPR, CHO K1 hB1R cells): 1%
CN(C)C(CCc1ccccc1)C1CCC(NC(=O)CNC(=O)c2nc(-c3ccc(Cl)cc3Cl)no2)CC1 (centres unmarked) [Example 795, 3-(2,4-dichloro-phenyl)-[1,2,4]oxadiazole-5-carboxylic acid {[4-(1-dimethylamino-3-phenyl-propyl)-cyclohexylcarbamoyl]-methyl}-amide] | – | – | inhibition at 10 µM ([1]; Ca2+ FLIPR, CHO K1 hB1R cells): 103%
Cc1ccc(F)cc1-c1noc(C(=O)NCC(=O)NC2CCC(C(CCc3ccccc3)N(C)C)CC2)n1 (centres unmarked) [Example 796, 3-(5-fluoro-2-methyl-phenyl)-[1,2,4]oxadiazole-5-carboxylic acid {[4-(1-dimethylamino-3-phenyl-propyl)-cyclohexylcarbamoyl]-methyl}-amide] | – | – | inhibition at 10 µM ([1]; Ca2+ FLIPR, CHO K1 hB1R cells): 94%
CN(C)C(CCc1ccccc1)C1CCC(NC(=O)CCNC(=O)c2nc(-c3cccs3)no2)CC1 (centres unmarked) [Example 797, 3-thiophen-2-yl-[1,2,4]oxadiazole-5-carboxylic acid {2-[4-(1-dimethylamino-3-phenyl-propyl)-cyclohexylcarbamoyl]-ethyl}-amide] | – | – | inhibition at 10 µM ([1]; % inhibition compared with the maximum achievable inhibition): 0%
